Data as given in ChEMBL document CHEMBL5291721, “A preclinical secondary pharmacology resource illuminates target-adverse drug reaction associations of marketed drugs” (Nat Commun, 2023).

Assays:
[1] = target: T1, Gamma-aminobutyric acid receptor subunit alpha-1 (Rattus norvegicus, UniProt P62813)
[2] = target: T2, Muscarinic acetylcholine receptor M2 (Homo sapiens, UniProt P08172); format: functional, cell-based
T2 sequence (P08172 whole entry): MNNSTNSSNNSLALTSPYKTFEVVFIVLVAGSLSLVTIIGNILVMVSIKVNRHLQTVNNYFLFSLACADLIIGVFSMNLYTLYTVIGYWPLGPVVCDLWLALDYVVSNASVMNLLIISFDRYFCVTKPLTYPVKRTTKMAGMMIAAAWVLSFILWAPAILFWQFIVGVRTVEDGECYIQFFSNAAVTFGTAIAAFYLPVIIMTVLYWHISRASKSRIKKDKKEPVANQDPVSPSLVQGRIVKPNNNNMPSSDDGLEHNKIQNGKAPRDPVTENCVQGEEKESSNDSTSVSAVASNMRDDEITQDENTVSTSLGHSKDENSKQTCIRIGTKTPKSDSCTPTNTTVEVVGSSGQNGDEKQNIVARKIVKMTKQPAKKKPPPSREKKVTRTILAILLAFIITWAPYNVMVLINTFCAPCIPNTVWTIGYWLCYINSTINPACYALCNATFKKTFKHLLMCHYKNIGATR

[3] = target: Delta-type opioid receptor (Homo sapiens, UniProt P41143)
Chain of Delta-type opioid receptor (P41143 whole entry): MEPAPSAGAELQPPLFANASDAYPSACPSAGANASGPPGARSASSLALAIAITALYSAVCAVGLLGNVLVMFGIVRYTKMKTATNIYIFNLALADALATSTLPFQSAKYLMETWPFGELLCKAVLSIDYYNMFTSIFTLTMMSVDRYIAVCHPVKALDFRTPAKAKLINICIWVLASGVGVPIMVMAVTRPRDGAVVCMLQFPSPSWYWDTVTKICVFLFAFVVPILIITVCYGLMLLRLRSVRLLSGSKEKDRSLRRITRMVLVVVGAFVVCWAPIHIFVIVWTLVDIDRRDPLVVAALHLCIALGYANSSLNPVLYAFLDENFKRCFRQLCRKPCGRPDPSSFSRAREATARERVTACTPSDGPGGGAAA

Glucocorticoid receptor = target: T3, Glucocorticoid receptor (Homo sapiens, UniProt P04150)
T3 sequence (P04150 whole entry): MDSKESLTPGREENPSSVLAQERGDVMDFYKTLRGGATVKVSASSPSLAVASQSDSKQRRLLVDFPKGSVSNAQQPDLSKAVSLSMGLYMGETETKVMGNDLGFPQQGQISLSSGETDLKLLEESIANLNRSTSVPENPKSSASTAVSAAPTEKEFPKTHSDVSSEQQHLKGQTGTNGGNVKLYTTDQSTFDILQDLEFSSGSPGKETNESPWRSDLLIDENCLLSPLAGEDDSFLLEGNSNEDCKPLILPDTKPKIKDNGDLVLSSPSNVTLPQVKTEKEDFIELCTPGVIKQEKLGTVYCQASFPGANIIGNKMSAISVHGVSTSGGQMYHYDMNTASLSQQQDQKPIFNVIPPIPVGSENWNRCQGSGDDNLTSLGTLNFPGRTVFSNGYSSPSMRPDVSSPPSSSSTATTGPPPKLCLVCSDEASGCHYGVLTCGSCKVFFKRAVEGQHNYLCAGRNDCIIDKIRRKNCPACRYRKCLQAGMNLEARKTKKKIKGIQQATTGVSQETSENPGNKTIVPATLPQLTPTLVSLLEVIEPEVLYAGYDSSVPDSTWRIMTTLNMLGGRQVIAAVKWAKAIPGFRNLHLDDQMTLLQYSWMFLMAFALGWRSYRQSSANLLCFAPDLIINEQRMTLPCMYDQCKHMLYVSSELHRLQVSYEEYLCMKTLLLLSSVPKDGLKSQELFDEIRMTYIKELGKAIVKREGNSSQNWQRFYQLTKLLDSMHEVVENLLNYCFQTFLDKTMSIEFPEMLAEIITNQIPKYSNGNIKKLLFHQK

[4] = target: Sodium-dependent dopamine transporter (Homo sapiens, UniProt Q01959)
Chain of Sodium-dependent dopamine transporter (Q01959 whole entry): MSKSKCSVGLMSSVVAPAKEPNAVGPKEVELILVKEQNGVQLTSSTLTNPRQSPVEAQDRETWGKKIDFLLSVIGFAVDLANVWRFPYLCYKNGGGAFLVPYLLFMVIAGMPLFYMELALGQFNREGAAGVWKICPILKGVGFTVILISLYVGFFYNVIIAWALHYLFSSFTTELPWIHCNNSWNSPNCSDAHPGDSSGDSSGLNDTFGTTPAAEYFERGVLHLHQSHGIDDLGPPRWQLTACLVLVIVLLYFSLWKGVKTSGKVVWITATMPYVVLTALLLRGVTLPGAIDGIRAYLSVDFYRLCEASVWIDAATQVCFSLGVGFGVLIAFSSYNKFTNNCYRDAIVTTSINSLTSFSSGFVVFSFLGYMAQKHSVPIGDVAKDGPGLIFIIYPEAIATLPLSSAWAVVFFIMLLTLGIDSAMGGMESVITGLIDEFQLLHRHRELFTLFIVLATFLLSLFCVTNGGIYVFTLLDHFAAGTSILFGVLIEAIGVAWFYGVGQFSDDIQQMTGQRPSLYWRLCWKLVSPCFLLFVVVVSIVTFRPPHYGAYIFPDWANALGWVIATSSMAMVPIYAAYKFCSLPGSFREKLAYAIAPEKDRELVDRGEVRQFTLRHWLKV

[5] = target: Sodium-dependent serotonin transporter (Homo sapiens, UniProt P31645)
Chain of Sodium-dependent serotonin transporter (P31645 whole entry): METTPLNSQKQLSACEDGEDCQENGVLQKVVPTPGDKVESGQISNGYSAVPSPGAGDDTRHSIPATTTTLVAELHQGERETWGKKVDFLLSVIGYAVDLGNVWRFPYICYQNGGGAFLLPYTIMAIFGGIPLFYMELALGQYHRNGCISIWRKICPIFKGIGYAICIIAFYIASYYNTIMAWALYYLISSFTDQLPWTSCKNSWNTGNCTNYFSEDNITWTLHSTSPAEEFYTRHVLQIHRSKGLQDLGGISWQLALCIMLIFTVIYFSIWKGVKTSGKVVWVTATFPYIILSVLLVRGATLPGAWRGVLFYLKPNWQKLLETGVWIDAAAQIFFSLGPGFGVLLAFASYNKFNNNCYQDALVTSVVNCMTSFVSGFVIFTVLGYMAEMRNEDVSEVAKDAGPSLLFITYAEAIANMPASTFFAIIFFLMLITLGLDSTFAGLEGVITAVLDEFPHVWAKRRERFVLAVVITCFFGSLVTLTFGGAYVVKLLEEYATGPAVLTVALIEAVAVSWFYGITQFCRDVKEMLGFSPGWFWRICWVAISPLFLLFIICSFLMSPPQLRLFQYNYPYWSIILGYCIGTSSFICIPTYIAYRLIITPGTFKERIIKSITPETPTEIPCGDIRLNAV

Adenosine receptor A3 = target: T4, Adenosine receptor A3 (Homo sapiens, UniProt P0DMS8)
T4 sequence (P0DMS8 whole entry): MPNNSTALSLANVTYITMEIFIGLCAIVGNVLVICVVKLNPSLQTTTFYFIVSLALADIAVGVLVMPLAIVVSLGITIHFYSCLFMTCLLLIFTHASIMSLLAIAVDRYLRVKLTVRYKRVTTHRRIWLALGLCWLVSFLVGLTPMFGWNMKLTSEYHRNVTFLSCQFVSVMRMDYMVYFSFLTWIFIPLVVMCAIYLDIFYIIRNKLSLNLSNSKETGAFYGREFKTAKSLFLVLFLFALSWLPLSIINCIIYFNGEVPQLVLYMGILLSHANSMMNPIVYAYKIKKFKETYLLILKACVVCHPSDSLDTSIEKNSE

[6] = target: T5, Neuropeptide Y receptor type 1 (Homo sapiens, UniProt P25929)
T5 sequence (P25929 whole entry): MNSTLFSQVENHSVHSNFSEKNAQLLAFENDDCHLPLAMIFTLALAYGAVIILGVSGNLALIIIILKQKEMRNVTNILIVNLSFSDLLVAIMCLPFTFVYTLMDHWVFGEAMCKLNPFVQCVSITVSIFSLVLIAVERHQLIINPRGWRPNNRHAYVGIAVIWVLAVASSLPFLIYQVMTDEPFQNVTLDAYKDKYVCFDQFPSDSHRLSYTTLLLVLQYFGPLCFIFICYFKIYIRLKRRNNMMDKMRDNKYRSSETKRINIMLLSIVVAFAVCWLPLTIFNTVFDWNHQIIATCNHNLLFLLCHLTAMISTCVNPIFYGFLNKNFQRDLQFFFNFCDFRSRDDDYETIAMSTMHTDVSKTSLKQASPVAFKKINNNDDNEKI

Thromboxane A2 receptor = target: T6, Thromboxane A2 receptor (Homo sapiens, UniProt P21731)
T6 sequence (P21731 whole entry): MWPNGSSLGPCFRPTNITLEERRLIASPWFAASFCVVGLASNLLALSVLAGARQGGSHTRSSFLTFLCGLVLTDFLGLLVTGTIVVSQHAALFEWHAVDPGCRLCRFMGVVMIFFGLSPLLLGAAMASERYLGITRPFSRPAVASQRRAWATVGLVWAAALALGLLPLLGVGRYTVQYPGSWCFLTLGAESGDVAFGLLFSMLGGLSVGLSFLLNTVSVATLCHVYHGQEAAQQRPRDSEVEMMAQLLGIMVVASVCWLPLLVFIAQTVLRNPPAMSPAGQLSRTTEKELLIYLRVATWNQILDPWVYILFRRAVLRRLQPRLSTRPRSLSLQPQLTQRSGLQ

[7] = target: T2, Muscarinic acetylcholine receptor M2; format: functional, cell-based; remark: listed apart in the source
[8] = target: 3',5'-cyclic-AMP phosphodiesterase 4D (Homo sapiens, UniProt Q08499); format: functional
Chain of 3',5'-cyclic-AMP phosphodiesterase 4D (Q08499 whole entry): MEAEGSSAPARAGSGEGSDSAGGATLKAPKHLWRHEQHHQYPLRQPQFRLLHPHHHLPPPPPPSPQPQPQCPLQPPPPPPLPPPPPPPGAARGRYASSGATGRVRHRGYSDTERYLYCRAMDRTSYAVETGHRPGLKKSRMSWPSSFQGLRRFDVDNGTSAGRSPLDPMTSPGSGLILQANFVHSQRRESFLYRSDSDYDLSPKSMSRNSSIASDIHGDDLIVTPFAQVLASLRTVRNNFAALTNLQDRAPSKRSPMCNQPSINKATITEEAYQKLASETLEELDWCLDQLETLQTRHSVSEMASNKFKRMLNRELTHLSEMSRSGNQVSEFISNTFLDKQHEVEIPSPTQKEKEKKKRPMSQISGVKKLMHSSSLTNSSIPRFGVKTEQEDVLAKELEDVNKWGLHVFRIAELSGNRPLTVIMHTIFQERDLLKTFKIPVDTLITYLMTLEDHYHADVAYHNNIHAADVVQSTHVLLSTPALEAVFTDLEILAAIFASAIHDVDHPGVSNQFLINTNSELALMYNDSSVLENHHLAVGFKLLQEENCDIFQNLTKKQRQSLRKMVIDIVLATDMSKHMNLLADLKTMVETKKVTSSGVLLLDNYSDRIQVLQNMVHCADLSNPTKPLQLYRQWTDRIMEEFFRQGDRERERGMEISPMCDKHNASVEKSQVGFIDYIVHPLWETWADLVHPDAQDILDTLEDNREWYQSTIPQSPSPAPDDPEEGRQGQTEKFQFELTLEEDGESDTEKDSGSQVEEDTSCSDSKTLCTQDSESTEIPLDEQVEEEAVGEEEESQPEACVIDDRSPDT

[9] = target: Muscarinic acetylcholine receptor M3 (Homo sapiens, UniProt P20309)
Chain of Muscarinic acetylcholine receptor M3 (P20309 whole entry): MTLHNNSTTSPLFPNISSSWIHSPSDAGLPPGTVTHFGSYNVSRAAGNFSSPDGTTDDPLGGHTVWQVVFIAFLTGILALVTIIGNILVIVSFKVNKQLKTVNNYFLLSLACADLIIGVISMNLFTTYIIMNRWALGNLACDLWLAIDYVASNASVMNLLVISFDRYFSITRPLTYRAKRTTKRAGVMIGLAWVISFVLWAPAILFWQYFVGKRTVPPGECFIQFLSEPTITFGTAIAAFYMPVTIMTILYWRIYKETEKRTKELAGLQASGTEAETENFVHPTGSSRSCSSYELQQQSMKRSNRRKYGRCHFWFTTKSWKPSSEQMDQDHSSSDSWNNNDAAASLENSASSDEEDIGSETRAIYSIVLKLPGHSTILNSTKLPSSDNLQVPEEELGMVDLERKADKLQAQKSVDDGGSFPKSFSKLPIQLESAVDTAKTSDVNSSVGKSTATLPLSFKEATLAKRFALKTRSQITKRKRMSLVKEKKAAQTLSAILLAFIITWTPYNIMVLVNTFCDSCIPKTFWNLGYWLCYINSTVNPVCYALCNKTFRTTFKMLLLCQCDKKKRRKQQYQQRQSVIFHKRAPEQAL

[10] = target: T1, Gamma-aminobutyric acid receptor subunit alpha-1; format: functional
Cannabinoid receptor 1 = Cannabinoid receptor 1 (Homo sapiens, UniProt P21554); format: functional, cell-based
Chain of Cannabinoid receptor 1 (P21554 whole entry): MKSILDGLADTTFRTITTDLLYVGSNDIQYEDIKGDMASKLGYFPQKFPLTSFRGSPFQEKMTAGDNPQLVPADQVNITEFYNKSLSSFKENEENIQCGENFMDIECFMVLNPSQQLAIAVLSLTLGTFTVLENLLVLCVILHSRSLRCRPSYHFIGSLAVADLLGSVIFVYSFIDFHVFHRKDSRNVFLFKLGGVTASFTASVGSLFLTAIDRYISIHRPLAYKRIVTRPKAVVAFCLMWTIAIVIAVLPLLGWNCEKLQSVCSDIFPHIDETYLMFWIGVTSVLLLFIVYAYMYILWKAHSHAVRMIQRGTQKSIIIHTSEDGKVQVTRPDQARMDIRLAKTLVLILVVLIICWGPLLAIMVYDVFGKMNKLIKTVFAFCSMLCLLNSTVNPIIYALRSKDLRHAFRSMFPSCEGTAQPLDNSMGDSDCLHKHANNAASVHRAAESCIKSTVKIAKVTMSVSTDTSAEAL
Further: assay procedure not described here.

T1 sequence (P62813 whole entry): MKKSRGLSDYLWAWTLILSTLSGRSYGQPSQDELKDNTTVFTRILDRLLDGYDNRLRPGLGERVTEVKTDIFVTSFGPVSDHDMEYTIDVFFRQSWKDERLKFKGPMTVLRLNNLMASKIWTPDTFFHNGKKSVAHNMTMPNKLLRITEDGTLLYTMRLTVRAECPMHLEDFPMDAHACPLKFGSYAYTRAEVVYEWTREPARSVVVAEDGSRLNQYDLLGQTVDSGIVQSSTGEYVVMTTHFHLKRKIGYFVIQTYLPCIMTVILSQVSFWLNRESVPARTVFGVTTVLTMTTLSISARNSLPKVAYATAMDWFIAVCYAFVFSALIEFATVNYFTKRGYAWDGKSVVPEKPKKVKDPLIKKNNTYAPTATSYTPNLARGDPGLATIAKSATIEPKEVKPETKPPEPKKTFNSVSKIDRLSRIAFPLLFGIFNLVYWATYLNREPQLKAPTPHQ

Q: For `CC(=O)OCC(=O)[C@@]12OC3(CCCC3)O[C@@H]1C[C@H]1[C@@H]3CCC4=CC(=O)C=C[C@]4(C)[C@@]3(F)[C@@H](O)C[C@@]12C` [AMCINONIDE], which AC50 [1] is on record?
A: > 10 µM

Q: And the AC50 [2]?
A: > 10 µM

Q: And the AC50 [3]?
A: > 30 µM

Q: What about the AC50 (Glucocorticoid receptor) of the same molecule?
A: 0.016 µM

Q: What about the AC50 [4] of the same molecule?
A: > 10 µM

Q: What about the AC50 [5] of the same molecule?
A: > 10 µM

Q: And the AC50 (Adenosine receptor A3)?
A: > 10 µM

Q: And the AC50 [6]?
A: > 10 µM

Q: And the AC50 (Thromboxane A2 receptor)?
A: > 10 µM

Q: And the AC50 [7]?
A: > 10 µM

Q: What about the AC50 [8] of the same molecule?
A: > 30 µM

Q: And the AC50 [9]?
A: > 30 µM

Q: And the AC50 [10]?
A: > 10 µM

Q: With `CCCC(CCC)C(=O)O[C@H]1C[C@H]2CC[C@@H](C1)[N+]2(C)C` [ANISOTROPINE] as the molecule, how does the AC50 [2] read?
A: > 30 µM

Q: And the AC50 [3]?
A: > 30 µM

Q: And the AC50 [4]?
A: > 30 µM

Q: What about the AC50 [5] of the same molecule?
A: > 30 µM

Q: What about the AC50 (Adenosine receptor A3) of the same molecule?
A: > 30 µM

Q: And the AC50 [6]?
A: > 30 µM

Q: And the AC50 (Thromboxane A2 receptor)?
A: > 30 µM

Q: And the AC50 [7]?
A: 0.63 µM

Q: What about the AC50 [8] of the same molecule?
A: > 30 µM

Q: What about the AC50 [9] of the same molecule?
A: 0.036 µM

Q: And the AC50 [10]?
A: > 30 µM

Q: And the AC50 (Cannabinoid receptor 1)?
A: > 30 µM

Q: With `NC(CO)C(=O)NNCc1ccc(O)c(O)c1O` (centres undefined) [BENSERAZIDE] as the molecule, how does the AC50 [1] read?
A: > 10 µM

Q: What about the AC50 [2] of the same molecule?
A: > 10 µM

Q: And the AC50 [3]?
A: 30 µM

Q: And the AC50 [4]?
A: > 30 µM

Q: And the AC50 [5]?
A: > 30 µM

Q: And the AC50 (Adenosine receptor A3)?
A: 21.6 µM

Q: What about the AC50 [6] of the same molecule?
A: 5.67 µM

Q: What about the AC50 (Thromboxane A2 receptor) of the same molecule?
A: > 30 µM

Q: What about the AC50 [7] of the same molecule?
A: > 10 µM

Q: What about the AC50 [8] of the same molecule?
A: > 30 µM

Q: And the AC50 [9]?
A: > 30 µM

Q: And the AC50 [10]?
A: > 10 µM

Q: What about the AC50 (Cannabinoid receptor 1) of the same molecule?
A: > 30 µM

Q: `CC(C)C(=O)OCC(=O)[C@@]12O[C@H](C3CCCCC3)O[C@@H]1C[C@H]1[C@@H]3CCC4=CC(=O)C=C[C@]4(C)[C@H]3[C@@H](O)C[C@@]12C` [CICLESONIDE] was tested. Which AC50 [1] did it give?
A: > 30 µM

Q: What about the AC50 [2] of the same molecule?
A: > 10 µM

Q: What about the AC50 [3] of the same molecule?
A: > 30 µM

Q: And the AC50 [4]?
A: > 10 µM

Q: What about the AC50 [5] of the same molecule?
A: > 10 µM

Q: What about the AC50 (Adenosine receptor A3) of the same molecule?
A: 4.2 µM

Q: And the AC50 [6]?
A: > 10 µM

Q: And the AC50 (Thromboxane A2 receptor)?
A: > 10 µM

Q: What about the AC50 [7] of the same molecule?
A: > 10 µM

Q: And the AC50 [8]?
A: > 30 µM

Q: And the AC50 [9]?
A: > 30 µM

Q: And the AC50 [10]?
A: > 10 µM

Q: And the AC50 (Cannabinoid receptor 1)?
A: > 30 µM

Q: Which AC50 [1] does the source give for `CN1C(=O)CC(=O)N(c2ccccc2)c2cc(Cl)ccc21` [CLOBAZAM] here?
A: > 10 µM

Q: What about the AC50 [2] of the same molecule?
A: > 10 µM

Q: What about the AC50 [3] of the same molecule?
A: > 30 µM

Q: And the AC50 (Glucocorticoid receptor)?
A: > 10 µM

Q: What about the AC50 [4] of the same molecule?
A: > 10 µM

Q: What about the AC50 [5] of the same molecule?
A: > 10 µM

Q: What about the AC50 (Adenosine receptor A3) of the same molecule?
A: > 10 µM

Q: What about the AC50 [6] of the same molecule?
A: > 10 µM

Q: What about the AC50 (Thromboxane A2 receptor) of the same molecule?
A: > 10 µM

Q: What about the AC50 [7] of the same molecule?
A: > 10 µM

Q: What about the AC50 [8] of the same molecule?
A: 10 µM

Q: What about the AC50 [9] of the same molecule?
A: > 30 µM

Q: What about the AC50 [10] of the same molecule?
A: 0.3 µM

Q: What does the source list for `[H]/N=C(/N)c1ccc(NCc2nc3cc(C(=O)N(CCC(=O)O)c4ccccn4)ccc3n2C)cc1` [DABIGATRAN]?
A: AC50 [1]: > 30 µM; AC50 [2]: > 30 µM; AC50 [3]: > 30 µM; AC50 [4]: > 30 µM; AC50 [5]: > 30 µM; AC50 (Adenosine receptor A3): > 30 µM; AC50 [6]: > 30 µM; AC50 [7]: > 30 µM; AC50 [8]: > 30 µM; AC50 [9]: > 30 µM; AC50 [10]: > 30 µM; AC50 (Cannabinoid receptor 1): > 30 µM

Q: How did the AC50 [1] turn out when `C#CC1(OC(N)=O)CCCCC1` [ETHINAMATE] was run?
A: > 10 µM

Q: And the AC50 [2]?
A: > 10 µM

Q: And the AC50 [3]?
A: > 30 µM

Q: What about the AC50 (Glucocorticoid receptor) of the same molecule?
A: > 10 µM

Q: What about the AC50 [4] of the same molecule?
A: > 10 µM

Q: And the AC50 [5]?
A: > 10 µM

Q: What about the AC50 (Adenosine receptor A3) of the same molecule?
A: > 10 µM

Q: And the AC50 [6]?
A: > 10 µM

Q: And the AC50 (Thromboxane A2 receptor)?
A: > 10 µM

Q: And the AC50 [7]?
A: > 10 µM

Q: What about the AC50 [8] of the same molecule?
A: > 30 µM

Q: And the AC50 [9]?
A: > 30 µM

Q: What about the AC50 [10] of the same molecule?
A: > 10 µM
